From PMC7727793, “Aggregation Behavior, Antibacterial Activity and Biocompatibility of Catanionic Assemblies Based on Amino Acid-Derived Surfactants” (International Journal of Molecular Sciences, 2020)
Entries after “also recorded” stand apart in the source; their conditions may differ.

Assays:
[1] = tested on: all microorganisms tested; experiment: Broth microdilution MIC, statement for all microorganisms tested; format: cell-based
Method: Antibacterial assays were conducted in vitro using the broth microdilution method. The minimum inhibitory concentration (MIC) is the smallest concentration of antibacterial agent at which bacterial growth is not observed. MIC values were determined for 4 Gram-positive bacteria (methicillin-resistant Staphylococcus aureus ATCC 43300 (MRSA), Bacillus subtilis ATCC 6633, Kocuria rhizophila 9341, Staphylococcus epidermidis ATCC 12228), 3 Gram-negative bacteria (Klebsiella pneumoniae ATCC 4532, Pseudomonas aeruginosa ATCC 27853, Escherichia coli ATCC 8739) and the fungal strain, Candida albicans ATCC 10231. Frozen stocks of bacteria were incubated on Muller Hinton agar plates for 24 h at 37 °C. From this culture, a bacterial suspension of 1 × 10^6 colony forming units CFU/mL was prepared in MHB (pH = 7.3). Two dilutions of pure surfactants and their binary mixtures were prepared in MH broth to obtain a final concentration ranging from 4 to 454 μM in the microtiter plates.
Then, 10 μL of nutrient broth culture of each microorganism was added to achieve a final density of ca. 5 × 10^5 CFU/mL. The cultures were incubated for 24 h at 37 °C. Every assay was repeated three times.

Solubility in water = format: physicochemical

With `CCCCCCCCCCCC(=O)N[C@@H](CCCCNC(C)=O)C(=O)O` [C12C3L, N^α-lauroyl-N^εacetyl lysine] the MIC ([1]; K. rhizophila, B. subtilis, S. epidermidis, S. aureus, K. pneumoniae, E. coli, P. aeruginosa, C. albicans, higher concentrations precipitated, read-out: MIC for all microorganisms tested) was over 113 µM, the “Antibacterial activity (in words)” value ([1]; tested microorganisms) was “did not show activity” and the Solubility in water (Solubility in water) was “too low to determine a CMC; also recorded: not soluble in water”.
